From paper PMC7932521, “2-aminobenzimidazoles for leishmaniasis: From initial hit discovery to in vivo profiling” (PLoS Neglected Tropical Diseases, 2021)

Experiments:
[1] = tested on: panel of VL and CL strains (intracellular amastigotes); experiment: Panel of VL and CL strains; format: cell-based, Leishmania spp.; settings: Leishmania, L. major JISH118 and L. braziliensis H3227 excepted, read-out: IC50 values across panel of VL and CL strains
Protocol: The only two clear exceptions were L. major (MHOM/SA/85/JISH118) and L. braziliensis (MHOM/BR/94/H3227), where a potency drop was evident (see S1 Data for the complete dataset).
(§1) For the antileishmania in vitro assays, 3×10^4 PMM/well were seeded in 96-well plates. After 24h, 5×10^5 amastigotes/well were added and incubated for 2h at 37°C. Next, the compounds in 4-fold serial dilutions were added and the plates were further incubated for 5 days (37°C, 5% CO2). Parasite burdens were assessed using an inverted microscope after Giemsa staining. The results were expressed as percent reduction in parasite burdens compared to negative control wells (100% growth) and IC50 values were determined. Values represent the geometric mean of at least two independent experiments. Miltefosine was used as the positive control in all plates.

[2] = Mouse single-dose pharmacokinetics; format: in vivo; settings: female, BALB/c, plasma, single oral dose 10 mg/kg
[3] = tested on: L. braziliensis MHOM/BR/94/H3227; experiment: VL/CL panel, intracellular amastigotes; format: cell-based; settings: Leishmania braziliensis; average; read-out: IC-50 L. braziliensis MHOM/BR/94/H3227
Protocol: as §1

[4] = tested on: L. infantum (MHOM/BR/2005/NLC) strain expressing luciferase; format: in vivo, Leishmania infantum; settings: 25 mg/kg/day oral
Protocol: Groups of female BALB/c mice (n = 5) were infected with 10^8 stationary phase promastigotes of L. infantum chagasi-LUC in a final volume of 100 μL by the intraperitoneal route. At day 14 post-infection, groups were orally treated for 5 days with either drug vehicle only (10% ethanol, 40% PEG400 and 0.4% Tween80 in saline buffer—pH adjusted to 9), miltefosine (40 mg/kg QD) or with compounds 29 and 39 (25 mg/kg QD). Light emission in the ventral abdominal cavity of infected animals was recorded by bioimaging (IVIS Spectrum, Caliper Life Sciences) on 14, 19- and 24-days post-infection. Before imaging, mice received 75 mg/kg VivoGlo™ Luciferin (Promega Corporation) (i.p.) and were anesthetized in a 2% isoflurane atmosphere (Cristália). Animals were then transferred to the imaging chamber and kept in a 2% isoflurane atmosphere. Emitted photons were collected using the high resolution (medium binning) mode. Total photon emission from a defined region of interest (ROI) corresponding to the whole abdominal area was registered. The same ROI was applied to all animals in any given group. Images were acquired 15 min after luciferin injection. Total photon emission from each mouse was quantified with Living Image software version 4.3.1 (Caliper Life Sciences), and results were expressed as the number of photons/s/ROI subtracted from the corresponding ROI in uninfected animals. The detected signal was presented as a pseudocolor image representing light intensity (red = most intense and blue = least intense) and superimposed on the gray scale reference image.

Mouse 5-day tolerability = format: in vivo; settings: healthy mice
Protocol: Compounds were administered to groups (n = 3) of female BALB/c mice via oral gavage in a 5-day exploratory repeat-dose study at doses of 25, 50 and 100 mg/kg/day, employing a solution/suspension vehicle comprising 10% ethanol, 40% PEG400 and 0.4% Tween80 in saline buffer (pH adjusted to 9). Repeat-dose toxicity was evaluated based on mortality, clinical observations, body weight and macroscopic organ pathologies.

| Compound | IC50 [1] | AUC(0-t) [2] | Cmax [2] | bioavailability [2] | half-life [2] | IC50 [3] | toxicity in infected mice [4] | parasite load (bioluminescence) ([4]; 5 days, end of treatment or washout) | 5-day tolerability (Mouse 5-day tolerability; oral 25 mg/kg/day) | 5-day tolerability (Mouse 5-day tolerability; oral 50 mg/kg/day) | 5-day tolerability (Mouse 5-day tolerability; oral top dose (100 mg/kg/day)) |
| --- | --- | --- | --- | --- | --- | --- | --- | --- | --- | --- | --- |
| Cn1nccc1C(=O)Nc1nc2ccc(C#N)cc2n1CC(C)(C)C [Compound 29, O=C(Nc1n(CC(C)(C)C)c(c2n1)cc(C#N)cc2)c3n(C)ncc3] | 0.11 to 5.9 µM | 8160 ng·h/mL | 1000 ng/mL | 72% | 7.9 h | 24.8 µM | one animal was euthanized due to severe clinical signs of distress | no decrease in parasite load | well tolerated | clinical signs from day 3 of treatment | body weight reduction and severe toxic signs, including mortality |
| Cn1nc(C(F)(F)F)cc1C(=O)Nc1nc2ccc(C#N)cc2n1CC(F)(F)F [Compound 39, O=C(c1cc(C(F)(F)F)nn1C)Nc2nc(ccc(C#N)c3)c3n2CC(F)(F)F] | 0.11 to 5.9 µM | – | – | – | – | – | severe toxic effects | – | well tolerated | clinical signs from day 3 of treatment | body weight reduction and severe toxic signs, including mortality |
